{"source": "patent US5688488A", "about": "“Composition and method for tumor imaging” (priority 1995, dated 1997)", "molecules": {"B1": {"name": "Control SBTI: ^125 I soybean trypsin inhibitor left as an unmodified control (protein, UniProt P01070 25-205, looked up)", "Trypsin inhibitor A": "DFVLDNEGNPLENGGTYYILSDITAFGGIRAAPTGNERCPLTVVQSRNELDKGIGTIISSPYRIRFIAEGHPLSLKFDSFAVIMLCVGIPTEWSVVEDLPEGPAVKIGENKDAMDGWFRLERVSDDEFNNYKLVFCPQQAEDDKCGDIGISIDHDDGTRRLVVSKNKPLVVQFQKLDKESL", "modifications": "125I label"}, "B2": {"name": "^125 I-RNase: ^125 I labeled ribonuclease (lacking folate), control (protein, UniProt P61823 27-150, looked up)", "Ribonuclease pancreatic": "KETAAAKFERQHMDSSTSAASSSNYCNQMMKSRNLTKDRCKPVNTFVHESLADVQAVCSQKNVACKNGQTNCYQSYSTMSITDCRETGSSKYPNCAYKTTQANKHIIVACEGNPYVPVHFDASV", "modifications": "125I label"}}, "key": {"KB cells": {"system": "KB cells", "assay": "Uptake of ^67 Ga-DF-folate complex by cultured KB cells", "type": "cell-based, human", "description": "Cell Culture. KB cells, a human nasopharyngeal epidermal carcinoma cell line that greatly overexpresses the folate binding protein, were cultured continuously as a monolayer at 37° C. in a humidified atmosphere containing 5% CO2 in folate-deficient modified Eagle's medium (FDMEM) (a folate-free modified Eagle's medium supplemented with 10% (v/v) heat-inactivated fetal calf serum as the only source of folate) containing penicillin (50 units/mL), streptomycin (50 μg/mL), and 2 mM L-glutamine. The final folate concentration in the complete FDMEM is the physiological range (~2 nM). 48 h prior to each experiment, the cells were transferred to 35 mm culture dishes at 5×10^5 cells per dish and grown to ~80% confluent.\nBecause folate and its conjugates bind to cell surface receptors at 4° C., but are capable of endocytosis only at higher temperatures, it is possible to separately evaluate the kinetics of binding the internalization of folate by measuring the rates of folate conjugate uptake at the two temperatures. […] By the end of the 30 min incubation, binding approached to saturation with ~18% of the initial radioactivity found associated with a cell surface.\nIncubation at 37° C., a temperature which permits both binding and endocytosis, yielded similar kinetic results, however, maximal uptake reached 32% of the total conjugate added. Presumably, the difference in magnitude of the two cellular uptake curves reflects the ability of the folate receptor to internalize the conjugate and then recycle to the cell surface in its unoccupied form. […] This latter result is consistent with the inability of the α-conjugate to compete with free folate for the cell surface receptor.\nTo verify the involvement of a cell surface folate receptor in mediating the uptake of ^67 Ga-DF-folate(γ), binding and internalization of the complex were evaluated as a function of the complex's concentration. Cellular uptake of ^67 Ga-DF-folate(γ) was concentration dependent at both 4° C. and 37° C., saturating at levels of 20% and 35% of the total radioactivity added, respectively."}, "[1]": {"system": "Subcutaneous KB Cell Tumors", "settings": "mouse, in vivo, iv; for Tumor-to-Non-target Ratio: Tumor/blood / Tumor-to-Non-target Ratio: Tumor/kidney / Tumor-to-Non-target Ratio: Tumor/liver / Tumor-to-Non-target Ratio: Tumor/muscle: 240 min; for Percentage of Injected Dose per Gram of Tissue: Blood / Percentage of Injected Dose per Gram of Tissue: Heart / Percentage of Injected Dose per Gram of Tissue: Kidney / Percentage of Injected Dose per Gram of Tissue: Liver / Percentage of Injected Dose per Gram of Tissue: Lungs / Percentage of Injected Dose per Gram of Tissue: Muscle / Percentage of Injected Dose per Gram of Tissue: Tumor: 4 h"}, "[2]": {"assay": "In vivo delivery to mice of ^125 I soybean trypsin inhibitor", "settings": "15 minutes after tail vein injection, perfused", "description": "Mice (25 g) were then injected with either the biotinylated SBTI or the control SBTI by insertion of a hypodermic syringe containing a 25 gauge needle into the tail vein of the mouse. After 15 minutes, each mouse was sacrificed and then perfused with heparin-containing isotonic saline via the direct cardiac influx and efflux method."}, "KB Tumors": {"system": "KB Tumors", "assay": "Biodistribution of ^125 I-RNase-Folate conjugate and ^125 I-RNase control following I.V. administration to athymic mice with KB tumors", "settings": "folate-free diet"}}}
{"molecule": "CC(=O)N([O-])CCCCCNC(=O)CCC(=O)N([O-])CCCCCNC(=O)CCC(=O)N([O-])CCCCCN.[67Ga+3]", "note": "[^67 Ga-DF, reference compound]", "values": [{"measurement": "uptake by the KB cells", "setting": "KB cells; controls", "result": "did not show any significant uptake"}, {"measurement": "Tumor-to-Non-target Ratio: Tumor/blood", "setting": "[1]", "result": "3.9 ± 1.2"}, {"measurement": "Tumor-to-Non-target Ratio: Tumor/kidney", "setting": "[1]", "result": "0.08 ± 0.01"}, {"measurement": "Tumor-to-Non-target Ratio: Tumor/liver", "setting": "[1]", "result": "1.16 ± 0.10"}, {"measurement": "Tumor-to-Non-target Ratio: Tumor/muscle", "setting": "[1]", "result": "2.56 ± 0.15"}, {"measurement": "Percentage of Injected Dose per Gram of Tissue: Blood", "setting": "[1]", "result": "0.026 ± 0.009 % of injected dose per gram"}, {"measurement": "Percentage of Injected Dose per Gram of Tissue: Heart", "setting": "[1]", "result": "0.021 ± 0.002 % of injected dose per gram"}, {"measurement": "Percentage of Injected Dose per Gram of Tissue: Kidney", "setting": "[1]", "result": "1.26 ± 0.19 % of injected dose per gram"}, {"measurement": "Percentage of Injected Dose per Gram of Tissue: Liver", "setting": "[1]", "result": "0.082 ± 0.010 % of injected dose per gram"}, {"measurement": "Percentage of Injected Dose per Gram of Tissue: Lungs", "setting": "[1]", "result": "0.054 ± 0.010 % of injected dose per gram"}, {"measurement": "Percentage of Injected Dose per Gram of Tissue: Muscle", "setting": "[1]", "result": "0.037 ± 0.001 % of injected dose per gram"}, {"measurement": "Percentage of Injected Dose per Gram of Tissue: Tumor", "setting": "[1]", "result": "0.094 ± 0.004 % of injected dose per gram"}]}
{"molecule": "O=C([O-])CC(O)(CC(=O)[O-])C(=O)[O-].[67Ga+3]", "note": "[^67 Ga-citrate, reference compound]", "values": [{"measurement": "cell-associated ^67 Ga radioactivity, fold lower than ^67 Ga-DF-folate(γ)", "setting": "KB cells; 37° C., 30 min", "result": 106, "unit": "fold"}, {"measurement": "Tumor-to-Non-target Ratio: Tumor/blood", "setting": "[1]", "result": "0.84 ± 0.19"}, {"measurement": "Tumor-to-Non-target Ratio: Tumor/kidney", "setting": "[1]", "result": "2.4 ± 0.3"}, {"measurement": "Tumor-to-Non-target Ratio: Tumor/liver", "setting": "[1]", "result": "2.3 ± 0.2"}, {"measurement": "Tumor-to-Non-target Ratio: Tumor/muscle", "setting": "[1]", "result": "5.4 ± 0.7"}, {"measurement": "Percentage of Injected Dose per Gram of Tissue: Blood", "setting": "[1]", "result": "13.5 ± 3.2 % of injected dose per gram"}, {"measurement": "Percentage of Injected Dose per Gram of Tissue: Heart", "setting": "[1]", "result": "3.4 ± 0.2 % of injected dose per gram"}, {"measurement": "Percentage of Injected Dose per Gram of Tissue: Kidney", "setting": "[1]", "result": "4.6 ± 0.4 % of injected dose per gram"}, {"measurement": "Percentage of Injected Dose per Gram of Tissue: Liver", "setting": "[1]", "result": "4.7 ± 0.3 % of injected dose per gram"}, {"measurement": "Percentage of Injected Dose per Gram of Tissue: Lungs", "setting": "[1]", "result": "9.1 ± 2.7 % of injected dose per gram"}, {"measurement": "Percentage of Injected Dose per Gram of Tissue: Muscle", "setting": "[1]", "result": "2.04 ± 0.29 % of injected dose per gram"}, {"measurement": "Percentage of Injected Dose per Gram of Tissue: Tumor", "setting": "[1]", "result": "10.9 ± 0.2 % of injected dose per gram"}]}
{"molecule": "B1", "values": [{"measurement": "Counts per minute/gram wet weight: Brain", "setting": "[2]", "result": "0 Counts per minute/gram wet weight"}, {"measurement": "Counts per minute/gram wet weight: Heart", "setting": "[2]", "result": "0 Counts per minute/gram wet weight"}, {"measurement": "Counts per minute/gram wet weight: Intestine", "setting": "[2]", "result": "0 Counts per minute/gram wet weight"}, {"measurement": "Counts per minute/gram wet weight: Kidney", "setting": "[2]", "result": "5152 Counts per minute/gram wet weight"}, {"measurement": "Counts per minute/gram wet weight: Liver", "setting": "[2]", "result": "535 Counts per minute/gram wet weight"}, {"measurement": "Counts per minute/gram wet weight: Lung", "setting": "[2]", "result": "107 Counts per minute/gram wet weight"}, {"measurement": "Counts per minute/gram wet weight: Muscle", "setting": "[2]", "result": "0 Counts per minute/gram wet weight"}]}
{"molecule": "B2", "values": [{"measurement": "Percentage of Injected Dose per Gram: Brain", "setting": "KB Tumors; 1 hour after i.v.", "result": "0.19 ± 0.06 % of injected dose per gram"}, {"measurement": "Percentage of Injected Dose per Gram: Brain", "setting": "KB Tumors; 4 hours after i.v.", "result": "0.06 ± 0.004 % of injected dose per gram"}, {"measurement": "Percentage of Injected Dose per Gram: Brain", "setting": "KB Tumors; 24 hours after i.v.", "result": "0.0055 ± 0.0006 % of injected dose per gram"}]}
